Assay results as given in ChEMBL document CHEMBL2384988, “Discovery of 2-{3-[2-(1-isopropyl-3-methyl-1H-1,2-4-triazol-5-yl)-5,6-dihydrobenzo[f]imidazo[1,2-d][1,4]oxazepin-9-yl]-1H-pyrazol-1-yl}-2-methylpropanamide (GDC-0032): a β-sparing phosphoinositide 3-kinase inhibitor with high unbound exposure and robust in vivo antitumor activity” (J Med Chem, 2013).
≈ marks a conversion by molar mass, not a printed value. Blank lines part the entries; values can stand above or below the compound they belong to.

What was measured:
Mus musculus [1] = assay: Unbound AUC in nude mouse at 1 mg/kg, iv and 25 mg/kg, po; type: ADME, organism-based; conditions: in vivo
[2] = (§1) AUCtotal in nude mouse at 1 mg/kg, iv and 25 mg/kg, po; type: ADME, organism-based, Plasma; conditions: nude, plasma
Mus musculus [3] = assay: Unbound AUC in nude mouse at 100 mg/kg, po; type: ADME, organism-based; design: dose 100 mg/kg, route oral; conditions: in vivo
[4] = AUCtotal in nude mouse at 100 mg/kg, po; type: ADME, organism-based; design: time AUCmax, dose 100 mg/kg, route oral; conditions: plasma
Mus musculus [5] = assay: Unbound clearance in nude mouse at 1 mg/kg, iv and 25 mg/kg, po; type: ADME, organism-based; conditions: in vivo
[6] = (§2) Plasma protein binding in mouse by equilibrium dialysis; type: ADME, cell-free; conditions: read-out: PPB (converted)
cells = conditions: Homo sapiens
Description: Cytotoxicity against human MCF7-neo/Her2 cells after 3 to 4 days by CellTitre-Glo assay

[7] = target: T1, Phosphatidylinositol 4,5-bisphosphate 3-kinase catalytic subunit alpha isoform (Homo sapiens, UniProt P42336)
Description: Inhibition of PI3Kalpha in human MCF7-neo/Her2 cells assessed as reduction of AKT phosphorylation at S473

[8] = Kinetic solubility of the compound; type: physicochemical; conditions: read-out: Kinetic_solubility
[9] = Intrinsic clearance in mouse liver microsomes after 1 hr by LC-MS/MS analysis; type: ADME, Microsome; conditions: read-out: CLH
[10] = target: T1, Phosphatidylinositol 4,5-bisphosphate 3-kinase catalytic subunit alpha isoform; remark: listed apart in the source
Description: Inhibition of PI3Kalpha (unknown origin) assessed as 3,4,5-inositoltriphosphate formation after 30 mins by fluorescence polarization assay

[11] = Oral bioavailability in Sprague-Dawley rat; type: ADME, organism-based; conditions: in vivo
[12] = Plasma protein binding in rat; type: ADME, cell-free; conditions: read-out: PPB (converted)
[13] = target: Phosphatidylinositol 4-phosphate 3-kinase C2 domain-containing subunit alpha (Homo sapiens, UniProt O00443); assay: Inhibition of PI3KC2alpha (unknown origin)
Mus musculus [14] = assay: Toxicity in nude mouse xenografted with human MCF7-neo/Her2 cells assessed as body weight loss relative to vehicle-treated control; type: organism-based
[15] = target: DNA-dependent protein kinase catalytic subunit (Homo sapiens, UniProt P78527); assay: Inhibition of DNA-dependent protein kinase (unknown origin)
[16] = Plasma clearance in Sprague-Dawley rat; type: ADME, organism-based
[17] = target: Phosphatidylinositol 4-phosphate 3-kinase C2 domain-containing subunit beta (Homo sapiens, UniProt O00750); assay: Inhibition of PI3KC2beta (unknown origin)
[18] = Plasma clearance in nude mouse at 1 mg/kg, iv and 25 mg/kg, po; type: ADME, organism-based
[19] = Oral bioavailability in mouse; type: ADME, organism-based; conditions: in vivo
PC-3 = assay: Cytotoxicity against human PC3 cells; type: functional, cell-based
[20] = target: T1, Phosphatidylinositol 4,5-bisphosphate 3-kinase catalytic subunit alpha isoform; conditions: 1 uM
Description: Inhibition of PI3Kalpha (unknown origin) at 1 uM

animal or person [21] = conditions: Homo sapiens, po, 480 h, read-out: TGI
Description: Antitumor activity against human MCF7-neo/Her2 cells xenografted in nude mouse at 22.5 mg/kg, po qd for 20 days relative to vehicle-treated control

Mus musculus [22] = assay: In vivo inhibition of PI3Kalpha in human MCF7-neo/Her2 cells xenografted in nude mouse assessed as reduction in AKT phosphorylation at S473 at 2.8 mg/kg, po measured after 1 hr; type: functional; design: scale not given: the % may be the effect or the level left
[23] = Plasma protein binding in human; type: ADME, cell-free; conditions: read-out: PPB (converted)
animal or person [24] = conditions: Homo sapiens, po, 480 h, read-out: TGI; remark: listed apart in the source
Description: Antitumor activity against human MCF7-neo/Her2 cells xenografted in nude mouse at 11.25 mg/kg, po qd for 20 days relative to vehicle-treated control

[25] = target: Serine/threonine-protein kinase mTOR (Homo sapiens, UniProt P42345); assay: Inhibition of mTOR (unknown origin)
[26] = target: T2, Phosphatidylinositol 4,5-bisphosphate 3-kinase catalytic subunit delta isoform (Homo sapiens) (UniProt O00329); conditions: 1 uM
T2 sequence (whole entry): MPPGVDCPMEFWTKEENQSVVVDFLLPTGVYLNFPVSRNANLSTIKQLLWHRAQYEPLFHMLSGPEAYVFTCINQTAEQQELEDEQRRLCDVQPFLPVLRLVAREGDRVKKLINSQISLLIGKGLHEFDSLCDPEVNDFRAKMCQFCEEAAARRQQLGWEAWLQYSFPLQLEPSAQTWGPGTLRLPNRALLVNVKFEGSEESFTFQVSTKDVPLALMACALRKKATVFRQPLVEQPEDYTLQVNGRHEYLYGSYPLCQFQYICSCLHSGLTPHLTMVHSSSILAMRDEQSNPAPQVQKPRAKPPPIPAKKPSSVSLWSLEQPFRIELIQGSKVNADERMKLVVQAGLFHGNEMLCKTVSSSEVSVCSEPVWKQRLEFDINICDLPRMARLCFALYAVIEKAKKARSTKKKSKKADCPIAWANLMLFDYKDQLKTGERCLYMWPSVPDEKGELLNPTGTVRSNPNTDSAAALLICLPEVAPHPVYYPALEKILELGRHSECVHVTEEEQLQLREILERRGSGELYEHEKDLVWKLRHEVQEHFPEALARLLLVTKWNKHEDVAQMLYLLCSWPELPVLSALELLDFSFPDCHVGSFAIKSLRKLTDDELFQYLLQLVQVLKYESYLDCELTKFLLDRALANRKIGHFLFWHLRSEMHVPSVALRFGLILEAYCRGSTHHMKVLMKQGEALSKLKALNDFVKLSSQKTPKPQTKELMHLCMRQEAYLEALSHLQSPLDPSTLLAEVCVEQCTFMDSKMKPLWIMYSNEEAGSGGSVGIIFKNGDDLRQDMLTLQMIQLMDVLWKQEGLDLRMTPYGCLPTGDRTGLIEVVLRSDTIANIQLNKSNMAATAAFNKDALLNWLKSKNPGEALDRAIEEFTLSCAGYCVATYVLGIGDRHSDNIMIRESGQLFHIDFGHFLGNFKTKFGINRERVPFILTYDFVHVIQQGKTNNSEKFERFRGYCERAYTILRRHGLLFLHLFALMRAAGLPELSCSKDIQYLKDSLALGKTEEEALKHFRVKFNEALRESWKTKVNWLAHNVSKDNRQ
Description: Inhibition of PI3Kdelta (unknown origin) at 1 uM

Plasma = assay: as §2; type: ADME, cell-free
[27] = target: Phosphatidylinositol 3-kinase catalytic subunit type 3 (Homo sapiens, UniProt Q8NEB9); assay: Inhibition of human VPS34
Mus musculus [28] = assay: as §1; type: ADME, organism-based, Plasma; conditions: in vivo

T1 sequence (P42336 whole entry, canonical isoform): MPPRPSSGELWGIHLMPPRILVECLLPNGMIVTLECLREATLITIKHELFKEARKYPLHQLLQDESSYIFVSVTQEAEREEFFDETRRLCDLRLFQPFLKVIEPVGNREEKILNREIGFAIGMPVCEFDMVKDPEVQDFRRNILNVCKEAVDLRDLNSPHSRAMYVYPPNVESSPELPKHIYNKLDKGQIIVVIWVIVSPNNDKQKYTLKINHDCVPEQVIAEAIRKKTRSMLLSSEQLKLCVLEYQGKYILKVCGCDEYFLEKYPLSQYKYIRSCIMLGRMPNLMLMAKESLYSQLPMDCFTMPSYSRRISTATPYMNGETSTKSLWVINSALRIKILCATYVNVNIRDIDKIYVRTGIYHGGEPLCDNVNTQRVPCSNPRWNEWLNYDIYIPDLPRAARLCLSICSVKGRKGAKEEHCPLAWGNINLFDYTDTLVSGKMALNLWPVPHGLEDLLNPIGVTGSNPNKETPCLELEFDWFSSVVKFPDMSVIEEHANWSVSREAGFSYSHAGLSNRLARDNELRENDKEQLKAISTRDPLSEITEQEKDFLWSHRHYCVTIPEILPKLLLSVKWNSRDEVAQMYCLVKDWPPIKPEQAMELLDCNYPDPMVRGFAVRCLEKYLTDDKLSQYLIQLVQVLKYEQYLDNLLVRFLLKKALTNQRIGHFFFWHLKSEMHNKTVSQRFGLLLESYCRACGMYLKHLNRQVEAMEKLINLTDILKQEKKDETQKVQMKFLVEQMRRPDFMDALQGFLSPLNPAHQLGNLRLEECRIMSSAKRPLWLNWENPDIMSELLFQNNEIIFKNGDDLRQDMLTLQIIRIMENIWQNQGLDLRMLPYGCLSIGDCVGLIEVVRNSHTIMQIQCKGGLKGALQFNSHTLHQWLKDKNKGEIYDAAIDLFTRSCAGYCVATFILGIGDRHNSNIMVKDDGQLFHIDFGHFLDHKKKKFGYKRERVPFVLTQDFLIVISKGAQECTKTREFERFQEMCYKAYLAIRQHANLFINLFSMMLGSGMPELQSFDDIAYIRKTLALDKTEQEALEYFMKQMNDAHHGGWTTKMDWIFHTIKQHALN
Phosphatidylinositol 3-kinase catalytic subunit type 3, sequence (Q8NEB9 whole entry): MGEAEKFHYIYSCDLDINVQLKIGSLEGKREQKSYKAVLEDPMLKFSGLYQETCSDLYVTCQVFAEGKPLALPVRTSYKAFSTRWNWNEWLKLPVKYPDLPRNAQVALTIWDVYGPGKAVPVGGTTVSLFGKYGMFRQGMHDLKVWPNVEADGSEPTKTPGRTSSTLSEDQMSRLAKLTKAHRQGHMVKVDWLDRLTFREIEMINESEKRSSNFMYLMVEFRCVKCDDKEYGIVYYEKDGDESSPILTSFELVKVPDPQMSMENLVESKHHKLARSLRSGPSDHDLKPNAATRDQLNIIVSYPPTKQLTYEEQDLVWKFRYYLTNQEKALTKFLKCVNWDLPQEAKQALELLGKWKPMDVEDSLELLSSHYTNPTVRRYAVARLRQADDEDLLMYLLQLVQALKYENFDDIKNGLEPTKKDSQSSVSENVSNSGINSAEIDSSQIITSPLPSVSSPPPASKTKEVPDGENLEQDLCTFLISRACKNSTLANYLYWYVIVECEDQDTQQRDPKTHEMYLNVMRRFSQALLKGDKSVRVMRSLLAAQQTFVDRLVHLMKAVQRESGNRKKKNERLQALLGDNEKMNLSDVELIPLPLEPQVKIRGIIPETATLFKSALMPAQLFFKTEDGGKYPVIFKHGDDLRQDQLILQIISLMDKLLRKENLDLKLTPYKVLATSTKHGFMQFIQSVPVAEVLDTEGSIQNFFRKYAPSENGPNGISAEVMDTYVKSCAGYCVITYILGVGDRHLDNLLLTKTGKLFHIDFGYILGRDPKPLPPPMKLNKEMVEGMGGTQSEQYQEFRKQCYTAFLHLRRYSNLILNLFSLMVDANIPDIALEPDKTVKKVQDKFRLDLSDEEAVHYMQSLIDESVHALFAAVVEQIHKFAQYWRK
Phosphatidylinositol 4-phosphate 3-kinase C2 domain-containing subunit beta, sequence (O00750 whole entry, the tested form may be a part): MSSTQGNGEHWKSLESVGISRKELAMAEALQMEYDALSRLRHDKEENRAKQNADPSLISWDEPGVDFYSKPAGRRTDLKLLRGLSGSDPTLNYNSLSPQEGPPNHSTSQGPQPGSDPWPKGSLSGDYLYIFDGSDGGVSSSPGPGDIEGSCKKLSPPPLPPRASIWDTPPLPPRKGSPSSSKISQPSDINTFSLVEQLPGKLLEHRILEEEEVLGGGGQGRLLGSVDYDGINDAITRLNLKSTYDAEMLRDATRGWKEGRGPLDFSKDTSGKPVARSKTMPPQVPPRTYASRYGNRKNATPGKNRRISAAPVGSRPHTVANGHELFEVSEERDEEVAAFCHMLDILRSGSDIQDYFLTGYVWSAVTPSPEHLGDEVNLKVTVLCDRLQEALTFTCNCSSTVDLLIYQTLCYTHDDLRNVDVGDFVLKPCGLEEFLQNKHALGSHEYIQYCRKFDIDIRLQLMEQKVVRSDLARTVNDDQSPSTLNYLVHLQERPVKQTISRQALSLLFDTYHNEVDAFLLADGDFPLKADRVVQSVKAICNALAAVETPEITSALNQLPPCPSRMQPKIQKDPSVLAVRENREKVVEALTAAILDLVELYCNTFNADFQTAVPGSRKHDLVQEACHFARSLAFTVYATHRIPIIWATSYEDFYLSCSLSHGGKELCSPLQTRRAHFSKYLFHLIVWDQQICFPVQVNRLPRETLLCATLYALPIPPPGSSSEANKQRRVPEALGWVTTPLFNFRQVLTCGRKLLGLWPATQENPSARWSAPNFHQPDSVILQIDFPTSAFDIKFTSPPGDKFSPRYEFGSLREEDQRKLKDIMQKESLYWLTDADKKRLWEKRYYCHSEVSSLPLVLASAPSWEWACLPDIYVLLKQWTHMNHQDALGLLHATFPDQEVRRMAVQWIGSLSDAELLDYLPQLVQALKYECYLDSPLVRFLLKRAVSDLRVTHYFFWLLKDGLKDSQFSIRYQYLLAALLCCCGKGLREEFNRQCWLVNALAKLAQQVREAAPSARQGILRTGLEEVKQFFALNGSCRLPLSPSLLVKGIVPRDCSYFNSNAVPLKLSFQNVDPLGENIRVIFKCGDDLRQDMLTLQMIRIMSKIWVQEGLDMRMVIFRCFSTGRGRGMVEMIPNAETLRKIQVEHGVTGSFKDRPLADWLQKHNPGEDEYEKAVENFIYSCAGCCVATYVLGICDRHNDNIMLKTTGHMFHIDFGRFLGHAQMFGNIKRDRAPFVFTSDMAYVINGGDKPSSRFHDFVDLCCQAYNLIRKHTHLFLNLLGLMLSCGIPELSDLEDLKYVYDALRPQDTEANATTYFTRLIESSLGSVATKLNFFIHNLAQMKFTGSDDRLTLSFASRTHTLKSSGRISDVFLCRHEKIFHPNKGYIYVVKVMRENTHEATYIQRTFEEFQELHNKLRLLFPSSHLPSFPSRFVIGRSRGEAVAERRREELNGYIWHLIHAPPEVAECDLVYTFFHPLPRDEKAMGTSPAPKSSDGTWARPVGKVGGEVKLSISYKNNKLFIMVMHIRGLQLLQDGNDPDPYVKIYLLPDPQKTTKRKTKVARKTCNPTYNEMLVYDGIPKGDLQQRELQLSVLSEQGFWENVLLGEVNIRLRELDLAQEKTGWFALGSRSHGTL

fAUC (Mus musculus [1]): 0.22 µM·h
AUC [2]: 112 µM·h
fAUC (Mus musculus [3]): 0.55 µM·h
AUC [4]: 275 µM·h
CL free (Mus musculus [5]): 4750 mL/min/kg
fraction unbound [6]: 0.002
IC50 (cells): 195 nM
SMILES: CC(C)n1ncnc1-c1nc2c(s1)CCOc1cc(-c3cnn(CCO)c3)ccc1-2

IC50 [7]: 0.93 nM
solubility kinetic [8]: 78.2 µM (≈ 39.3 µg/mL)
CLint scaled [9]: 23 mL/min/kg
IC50 (cells): 102 nM
Ki [10]: 0.34 nM
SMILES: Cc1nc(-c2cn3c(n2)-c2ccc(-c4cnn(C5CN(C(=O)[C@H](C)O)C5)c4)cc2OCC3)n(C(C)C)n1

bioavailability [11]: 99%
fraction unbound [12]: 0.02
IC50 [13]: > 10000 nM
IC50 [15]: > 4800 nM
clearance [16]: 1.8 mL/min/kg
IC50 [17]: 292 nM
fAUC (Mus musculus [1]): 42 µM·h
clearance [18]: 2.7 mL/min/kg
solubility kinetic [8]: 33.1 µM (≈ 15.2 µg/mL)
bioavailability [19]: 100%
AUC [2]: 388 µM·h
CLint scaled [9]: 41.1 mL/min/kg
inhibition [20]: 98.6%
fraction unbound [23]: 0.24
CL free (Mus musculus [5]): 25 mL/min/kg
Ki [25]: 1200 nM
inhibition [26]: 97.9%
PPB (Plasma): 89.3%
IC50 (cells): 25 nM
IC50 [27]: 374 nM
SMILES: Cc1nc(-c2cn3c(n2)-c2ccc(-c4cnn(C(C)(C)C(N)=O)c4)cc2OCC3)n(C(C)C)n1 [TASELISIB]
Activity (Mus musculus [14]): < 10%
EC50 (PC-3): 571 nM
inhibition in vivo at 22.5 mg/kg (animal or person [21]): 123%
Activity (Mus musculus [22]): 59%
inhibition in vivo at 11.25 mg/kg (animal or person [24]): 103%

IC50 [7]: 5.4 nM
solubility kinetic [8]: 5.1 µM (≈ 2.07 µg/mL)
CLint scaled [9]: 42.9 mL/min/kg
IC50 (cells): 92 nM
Ki [10]: 0.17 nM
SMILES: CC(C)n1ncnc1-c1cn2c(n1)-c1ccc(-c3cnn(CCO)c3)cc1OCC2

solubility kinetic [8]: 95.8 µM (≈ 36.2 µg/mL)
IC50 (cells): > 10000 nM
Ki [10]: 21.1 nM
SMILES: Cc1n[nH]c(-c2cn3c(n2)-c2ccc(-c4cnn(CCO)c4)cc2OCC3)n1

solubility kinetic [8]: < 1 µM
CLint scaled [9]: 550 mL/min/kg
IC50 (cells): 218 nM
Ki [10]: 0.31 nM
SMILES: CC(C)n1ncnc1-c1cn2c(n1)-c1ccc(-c3cn[nH]c3)cc1OCC2

solubility kinetic [8]: 2.4 µM (≈ 0.939 µg/mL)
CLint scaled [9]: 100 mL/min/kg
IC50 (cells): 1400 nM
Ki [10]: 2.8 nM
SMILES: Cc1nc(-c2cn3c(n2)-c2ccc(-c4cnn(CCO)c4)cc2OCC3)n(C)n1

fAUC (Mus musculus [1]): 2.7 µM·h
IC50 [7]: 9.4 nM
solubility kinetic [8]: 12.4 µM (≈ 5.38 µg/mL)
AUC (Mus musculus [28]): 156 µM·h
CLint scaled [9]: 44.3 mL/min/kg
CL free (Mus musculus [5]): 282 mL/min/kg
fraction unbound [6]: 0.017
IC50 (cells): 81 nM
Ki [10]: 0.14 nM
SMILES: CC(C)n1ncnc1-c1cn2c(n1)-c1ccc(-c3cnn(CC(C)(C)O)c3)cc1OCC2

IC50 [7]: 0.71 nM
solubility kinetic [8]: 2 µM (≈ 0.779 µg/mL)
CLint scaled [9]: 82 mL/min/kg
IC50 (cells): 157 nM
Ki [10]: 0.29 nM
SMILES: Cc1nc(-c2cn3c(n2)-c2ccc(-c4cnn(C)c4)cc2OCC3)n(C(C)C)n1

fAUC (Mus musculus [1]): 5.2 µM·h
IC50 [7]: 4.5 nM
AUC (Mus musculus [28]): 291 µM·h
CLint scaled [9]: 68.1 mL/min/kg
CL free (Mus musculus [5]): 83 mL/min/kg
fraction unbound [6]: 0.018
IC50 (cells): 138 nM
SMILES: Cc1nc(-c2cn3c(n2)-c2ccc(-c4cnn(CCO)c4)cc2OCC3)n(C(C)C)n1

IC50 [7]: 1.4 nM
solubility kinetic [8]: 109 µM (≈ 51.7 µg/mL)
CLint scaled [9]: 58 mL/min/kg
IC50 (cells): 120 nM
Ki [10]: 0.11 nM
SMILES: Cc1nc(-c2cn3c(n2)-c2ccc(-c4cnn(C5CN(CCO)C5)c4)cc2OCC3)n(C(C)C)n1

IC50 [7]: 35 nM
solubility kinetic [8]: 52.3 µM (≈ 25.6 µg/mL)
CLint scaled [9]: 89.4 mL/min/kg
IC50 (cells): 248 nM
Ki [10]: 0.3 nM
SMILES: Cc1nc(-c2cn3c(n2)-c2ccc(-c4cnn(CCN5CCOCC5)c4)cc2OCC3)n(C(C)C)n1

fAUC (Mus musculus [3]): 3.5 µM·h
AUC [4]: 80.3 µM·h
SMILES: CS(=O)(=O)N1CCN(Cc2cc3nc(-c4cccc5[nH]ncc45)nc(N4CCOCC4)c3s2)CC1 [PICTILISIB]
Activity (Mus musculus [14]): < 10%

IC50 [7]: 2.9 nM
solubility kinetic [8]: 7.6 µM (≈ 3.39 µg/mL)
CLint scaled [9]: 28 mL/min/kg
IC50 (cells): 66 nM
Ki [10]: < 1 nM
SMILES: OCCn1cc(-c2ccc3c(c2)OCCn2cc(-c4ncnn4CC(F)(F)F)nc2-3)cn1
